# Results from patent US9655886B2, “Substituted 2,3,4,5-tetrahydro-1H-pyrido[4,3-b]indoles, methods for use thereof” (priority 2015, dated 2017).
# pIC50: −log10 of the molar value.
# Legend:
# BALB/c male mice [1] = experiment: Mice Behavior an Elevated Cross Shaped Labyrinth (tranquilizing action); assay type: in vivo; conditions: preference index for open sections, number of defecations; FIG. 19-21
# From the text: The length of each section in the labyrinth is 30 cm, the width is 5 cm, the height of the walls is 15 cm. Two opposite sections are closed by transparent walls on the sides and on the butt ends, the other two sections are lit and opened. A mouse was placed in the center of the labyrinth and for the next five minutes the number of entries the open and closed sections and the time spent in each type of section was registered. […] The animals usually avoid the open sections (the preference index is between 0.2 and 0.3).
# SHK male mice = experiment: Recognition of New Objects by Mice Under Scopolamine and MK-801; assay type: in vivo; conditions: scopolamine 1 mg/kg and MK-801 0.2 mg/kg; FIG. 13-14
# Description: The experiments were carried out in a closed cross shaped labyrinth which consisted of 4 peripheral sections connected with the central chamber via a 7×7 cm hole. The labyrinth was made of black plastic and its sections were of 14×14×14 cm size. The top cover of the labyrinth was transparent.
# A mouse was placed in the central section of the labyrinth and allowed to investigate the environment. A mouse was considered to have entered a section once all of its four paws were inside the chamber. A test was considered to be completed when the mouse had moved 12 times between the sections, having made a total of 13 visits. The floor of the labyrinth was cleaned after each animal.
# With each mouse the test was carried out twice with 1 hour interval.
# During the first test, each section of the labyrinth contained a circular plastic cup of 3 cm height and 7 cm diameter. During the second test the cover in each of the two opposing sections was replaced by a conical glass bulb of 7 cm height and 4 cm across the bottom. The time that the mice spent in each section of the labyrinth was registered and the index of new object recognition was calculated as the ratio of the time spent in the sections with the bulbs to the time spent in all sections of the labyrinth. If no preference is given to the sections with new objects the index is 0.5.
# When new objects appear the mice spend more time in the section containing them that results in an increased recognition index. Scopolamine (1 mg/kg) and MK-801 (0.2 mg/kg) disturbed learning (memory) that leads to lowering of the recognition index.
# BALB/c male mice [2] = experiment: Passive Avoidance of Mice in a Shuttle Chamber, scopolamine or MK-801 (Example 8); assay type: in vivo; conditions: scopolamine 0.3 mg/kg or MK-801 0.1 mg/kg; SB-742457 1 mg/kg; FIGS. 5-10
# Description: A shuttle chamber (Ugo Basile, Italy) consisted of two sections was used. […] The sections were connected via a hole which could be shut with a vertical door. The floor was made of transverse metal bars on which DC current impulses could be fed. Experiments were carried out on aged male mice of line BALB/c weighing 20-24 grams.
# On the first day of the experiment 30 minutes before training the mice were injected intraintestinally with physiological solution of scopolamine (0.3 mg/kg) or scopolamine in combination with antagonists of 5-HT6 receptors 1.2.1(2)HCl, 1.2.1(4)HCl or 1.2.1(5)HCl. Each group consisted of at least 8 animals. The animals were placed in the light section, and the latent period of the first entry into the dark chamber was registered. Then the vertical door was closed and the animal was punished by 0.6 mA DC current for 3 seconds. After that the animal was carried back to its living cell. In 22-24 hours the same animal was placed in the light section of the shuttle chamber once again and the latent period before its entry into the dark section, the total time of its stay in the light section and the number of entries into the dark section were registered. Each observation lasted for 5 minutes.
# The experiment was carried out in the same way as in example 7. On the first day 30 minutes before training the mice were injected intra-intestinally with a physiological solution of scopolamine (0.3 mg/kg) or MK-801(0.1 mg/kg).
# BALB/c male mice [3] = experiment: Training Mice in the Morris Water labyrinth, scopolamine; assay type: in vivo; conditions: scopolamine 0.6 mg/kg; 1.2.1(5)HCl 0.1 mg/kg, 1.2.1(1)HCl 1 mg/kg, tacrine 3 mg/kg; FIG. 11-12
# Description: A circular pool of 100 cm diameter and of 30 cm sides was used. It was filled with water at 20-22° C. A circular ceramic platform of 14 cm height was placed in the pool. The behavior of the animals was registered using an automated computer video system in addition with software package of movement analyzer Any-maze (Stoelting Co., US). The experiments were carried out on aged male mice of BALB/c line weighing 20-24 grams. Before the experiments mice fit for learning were selected. This was done by placing the platform 1 cm above the water level and putting an animal on the platform for 20 seconds. Then the mouse was put in the water on the opposite side of the pool and allowed to find the platform and climb onto it for 60 seconds, where it was left for additional 20 seconds. After that the mouse was repeatedly immersed in the water on the opposite side of the pool and allowed to search for the platform. If it failed in finding the platform within 60 seconds the experimentator helped it to find the platform and climb onto it. If the mice couldn't find the platform itself in two consecutive attempts it was excluded from the experiment.
# During the next two days the platform was placed 0.5 centimeters lower the water level. Every day the mice were given four attempts for finding the platform within 60 seconds. The time interval between the attempts was 20 seconds, during which the mice stayed on the platform. Every day before the first attempt the mice was placed on the platform for 20 seconds. The time needed for finding and climbing the platform was registered. The animals were sunk in water in two different places on the side of the pool opposite to the platform.
# The animals of the control group were injected with physiological solution. At least 8 animals were used in each group.
# On the third day the platform was removed and each animal was placed in the pool once for a period of 60 seconds. The time each mouse spent in the area where the platform had been located during the previous days was registered. […]
# BALB/c male mice [4] = experiment: Passive Avoidance of Mice in a Shuttle Chamber, memory disturbed by scopolamine (Example 7); assay type: in vivo; conditions: scopolamine 0.3 mg/kg, injected 30 minutes before training; FIGS. 2-4
# Description: A shuttle chamber (Ugo Basile, Italy) consisted of two sections was used. […] The sections were connected via a hole which could be shut with a vertical door. The floor was made of transverse metal bars on which DC current impulses could be fed. Experiments were carried out on aged male mice of line BALB/c weighing 20-24 grams. On the first day of the experiment 30 minutes before training the mice were injected intraintestinally with physiological solution of scopolamine (0.3 mg/kg) or scopolamine in combination with antagonists of 5-HT6 receptors 1.2.1(2)HCl, 1.2.1(4)HCl or 1.2.1(5)HCl. Each group consisted of at least 8 animals. The animals were placed in the light section, and the latent period of the first entry into the dark chamber was registered. Then the vertical door was closed and the animal was punished by 0.6 mA DC current for 3 seconds. After that the animal was carried back to its living cell. In 22-24 hours the same animal was placed in the light section of the shuttle chamber once again and the latent period before its entry into the dark section, the total time of its stay in the light section and the number of entries into the dark section were registered. Each observation lasted for 5 minutes. The experiment was carried out during the day time in an isolated laboratory using white noise at a level of about 70 decibel above the human hearing threshold. Scopolamine causes the disturbance of training (memory loss) which results in […]. The fact that 5-HT6 receptor antagonists can improve the learning ability that has been disturbed by scopolamine is regarded as evidence for their nootropic effect.
# 5-HT6 receptor = biological target: T1, 5-HT6 receptor (Homo sapiens, UniProt P50406); experiment: Inhibition of serotonine stimulated intracellular cAMP in HEK 293 cells with expressed 5-HT6 receptor (LANCE cAMP); assay type: cell-based; conditions: HEK 293 cells with artificially expressed 5-HT6 receptor; reduction of cAMP induced by serotonine
# T1 construct: expressed in transfected cells; host or cells: HEK 293
# Description: The concentration of intracellular cAMP was determined using a LANCE cAMP reagent (PerkinElmer) by the method described by the manufacturer: [http://las.perkinelmer.com/content/Manuals/MAN_LANCEcAMP384KitUser.pdf].
# T1 sequence (P50406 whole entry): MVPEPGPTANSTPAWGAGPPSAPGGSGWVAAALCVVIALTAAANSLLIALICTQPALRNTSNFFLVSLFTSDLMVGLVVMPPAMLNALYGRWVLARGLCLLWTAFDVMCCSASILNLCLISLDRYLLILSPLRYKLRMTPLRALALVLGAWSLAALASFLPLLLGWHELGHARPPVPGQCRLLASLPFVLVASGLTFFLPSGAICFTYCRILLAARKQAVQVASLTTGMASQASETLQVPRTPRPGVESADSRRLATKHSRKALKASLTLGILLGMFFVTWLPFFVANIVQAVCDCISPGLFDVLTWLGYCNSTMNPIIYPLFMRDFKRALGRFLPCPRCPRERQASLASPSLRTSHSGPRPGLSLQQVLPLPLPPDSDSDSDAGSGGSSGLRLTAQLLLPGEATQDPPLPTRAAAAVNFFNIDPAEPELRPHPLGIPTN
Compound,"tranquilizing action, elevated cross shaped labyrinth (BALB/c male mice [1])","nootropic action, new object recognition (SHK male mice)","nootropic action, passive avoidance (BALB/c male mice [2])","improvement of mice's training, Morris water labyrinth (BALB/c male mice [3])","nootropic action (memory enhancement disturbed by scopolamine), passive avoidance (BALB/c male mice [4])",other results
"Cc1ccc2c(c1)c1c(n2CCc2ccccc2)CCN(C)C1.Cl [1.2.1(1)HCl, 2,8-dimethyl-5-(2-phenylethyl)-2,3,4,5-tetrahydro-1H-pyrido[4,3-b]indole hydrochloride]","tranquilizing action, which is the most prominent","nootropic action, the level of which is the most prominent",highest activity,statistically significant improvement of mice's training,,
"Cc1ccc2c(c1)c1c(n2CCc2ccncc2)CCN(C)C1.Cl [1.2.1(2)HCl, 2,8-dimethyl-5-[2-(pyridin-4-yl)ethyl]-2,3,4,5-tetrahydro-1H-pyrido[4,3-b]indole hydrochloride]",,,,,nootropic action which is the most prominent,
"Cc1ccc2c(c1)c1c(n2CCc2ccccn2)CCN(C)C1.Cl [1.2.1(4)HCl, 2,8-dimethyl-5-[2-(pyridin-2-yl)ethyl]-2,3,4,5-tetrahydro-1H-pyrido[4,3-b]indole hydrochloride]",,,,,nootropic action which is the most prominent,
"Cc1ccc2c(c1)c1c(n2CCc2ccc(C)nc2)CCN(C)C1.Cl [1.2.1(5)HCl, 2,8-dimethyl-5-[2-(6-methylpyridin-3-yl)ethyl]-2,3,4,5-tetrahydro-1H-pyrido[4,3-b]indole hydrochloride]",tranquilizing action,nootropic action,nootropic action,statistically significant improvement of mice's training,nootropic action,
"CN1CCc2c(c3ccccc3n2C#Cc2ccccc2)C1 [1.3(1), 2-methyl-5-phenylethynyl-2,3,4,5-tetrahydro-1H-pyrido[4,3-b]indole]",,,,,,pIC50 (5-HT6 receptor): 5.39
O=C1CC2(CCCC2)CC(=O)N1CCCCN1CCN(c2ncccn2)CC1 [Buspiron],tranquilizing action,,,,,
O=S(=O)(c1ccccc1)c1cnc2c(N3CCNCC3)cccc2c1 [SB-742457],,nootropic action,inactive,,,
CC12CC3CC(C)(C1)CC(N)(C3)C2 [memantine],,nootropic action,,,,
Nc1c2c(nc3ccccc13)CCCC2 [tacrine],,,,statistically significant improvement of mice's training,,
